Results published in ChEMBL document CHEMBL5380860, “Design, Synthesis, and Antitumor Activity of Potent and Selective EGFR L858R/T790M Inhibitors and Identification of a Combination Therapy to Overcome Acquired Resistance in Models of Non-small-cell Lung Cancer” (J Med Chem, 2023).
Activity calls are given as the source filed them. The rule behind the calls is not given here.

Key:
[1] = AUC (0 to t) in Sprague-Dawley rat at 1 mg/kg, iv by LC-MS analysis; format: ADME, organism-based; set-up: dose 1 mg/kg, route iv; details: in vivo
A549 [2] = assay: Induction of apoptosis in human A549 cells assessed as induction of caspase-3 cleavage at 0.1 to 10 uM pretreated with compound for 4 hrs followed by incubation with EGF for 10 mins by western blot analysis; format: toxicity, cell-based; details: a549, 4.167 h, dose 0.1-10 µM, time 250 min
[3] = tested on: Epidermal growth factor receptor (Homo sapiens), P00533 [L858R]; assay: Inhibition of human partial length EGFR (R669 to V1011 residues) L858R mutant expressed in bacterial expression system assessed as residual activity at 1 uM by KINOMEscan analysis
NCI-H1975 [4] = assay: Antiproliferative activity against N-(3-((6-Fluoro-2-((4-(4-methylpiperazin-1-yl)phenyl)amino)quinazolin-4-yl)amino)phenyl)acrylamide-resistant human NCI-H1975 cells assessed as reduction in cell viability at compound:Bosutinib concentration ratio of 3:1 to 1:3 measured after 72 hrs in presence of ACK1 inhibitor, Bosutinib by MTT assay; format: functional, cell-based
NCI-H1975 [5] = assay: Antiproliferative activity against human NCI-H1975 cells harboring EGFR L858R/T790M mutant assessed as reduction in cell viability measured after 72 hrs by MTT assay; format: functional, cell-based; details: NCI-H1975, 72 h
NCI-H1975 [6] = assay: Antitumor activity against N-(3-((6-Fluoro-2-((4-(4-methylpiperazin-1-yl)phenyl)amino)quinazolin-4-yl)amino)phenyl)acrylamide-resistant human NCI-H1975 cells xenografted in BALB/c mouse assessed as inhibition of tumor volume at 20 mg/kg/day, ip in presence of ACK1 inhibitor, dasatinib; format: functional, organism-based
Mus musculus [7] = assay: In vivo inhibition of EGFR L858R/T790M mutant in N-(3-((6-Fluoro-2-((4-(4-methylpiperazin-1-yl)phenyl)amino)quinazolin-4-yl)amino)phenyl)acrylamide-resistant human NCI-H1975 cells xenografted BALB/c mouse assessed as inhibition of EGFR phosphorylation at Tyr1068 residue in tumor at 20 mg/kg/day, ip in presence of ACK1 inhibitor, dasatinib by immunoblot analysis; format: functional, organism-based
[8] = tested on: Epidermal growth factor receptor (Homo sapiens), P00533 [L858R,T790M]; assay: (§1) Inhibition of EGFR L858R/T790M mutant in N-(3-((6-Fluoro-2-((4-(4-methylpiperazin-1-yl)phenyl)amino)quinazolin-4-yl)amino)phenyl)acrylamide-resistant human NCI-H1975 cells assessed as inhibition of EGF-induced AKT phosphorylation at Ser473 residue pretreated with compound and ACK1 inhibitor, Dasatinib for 4 hrs followed by incubation with EGF for 10 mins by western blot analysis; format: cell-based; details: time 250.0 min
wild type EGFR = wild type EGFR (Homo sapiens, UniProt P00533); assay: Inhibition of human wild type partial length EGFR (R669 to V1011 residues) expressed in bacterial expression system assessed as residual activity at 1 uM by KINOMEscan analysis; format: toxicity; details: read-out: Activity
[9] = molecular target: Epidermal growth factor receptor (Homo sapiens, UniProt P00533, T790M); assay: Inhibition of human partial length EGFR (R669 to G1022 residues) T790M mutant expressed in mammalian expression system by KINOMEscan analysis
[10] = Toxicity in BALB/c mouse xenografted with N-(3-((6-Fluoro-2-((4-(4-methylpiperazin-1-yl)phenyl)amino)quinazolin-4-yl)amino)phenyl)acrylamide-resistant human NCI-H1975 cells assessed as changes in kidney morphological changes at 20 mg/kg/day, ip in presence of ACK1 inhibitor, dasatinib by hematoxylin-eosin staining based analysis; format: organism-based; details: in vivo
Mus musculus [11] = assay: In vivo inhibition of EGFR L858R/T790M mutant in NCI-H1975 cells xenografted BALB/c mouse assessed as inhibition of ERK-1/2 phosphorylation in tumor at 20 mg/kg/day, ip by immunoblot analysis; format: functional, organism-based
Mus musculus [12] = assay: In vivo inhibition of EGFR L858R/T790M mutant in ip dosed NCI-H1975 cells xenografted BALB/c mouse assessed as inhibition of AKT phosphorylation at Ser473 residue in tumor by immunoblot analysis; format: functional, organism-based; details: dose 5-20 mg/kg/day
[13] = GSH reactivity in PBS buffer assessed as half life by HPLC analysis; format: ADME; details: PBS buffer with GSH
[14] = tested on: Epidermal growth factor receptor (Homo sapiens), P00533 [L858R,T790M]; assay: as §1, with “Akt” for “AKT”, “compound” for “compound and ACK1 inhibitor, Dasatinib”; format: cell-based; details: time 250.0 min
NCI-H1975 [15] = assay: Induction of apoptosis in human NCI-H1975 cells assessed as induction of caspase-3 cleavage pretreated with compound for 4 hrs followed by incubation with EGF for 10 mins by western blot analysis; format: functional, cell-based; details: dose 0.1-10 µM, time 250.0 min
[16] = Cmax in Sprague-Dawley rat at 1 mg/kg, iv by LC-MS analysis; format: ADME, organism-based; set-up: dose 1 mg/kg, route iv; details: in vivo
A549 [17] = assay: Induction of apoptosis in human A549 cells assessed as induction of PARP cleavage at 0.1 to 10 uM pretreated with compound for 4 hrs followed by incubation with EGF for 10 mins by western blot analysis; format: toxicity, cell-based; details: a549, 4.167 h, dose 0.1-10 µM, time 250 min
[18] = molecular target: Epidermal growth factor receptor (Homo sapiens, UniProt P00533); assay: Inhibition of wild type EGFR in human A549 cells assessed as inhibition of EGF-induced Akt phosphorylation at Ser473 residue at 10 uM pretreated with compound for 4 hrs followed by incubation with EGF for 10 mins by western blot analysis; format: toxicity, cell-based; details: a549, 4.167 h, time 250 min
NCI-H1975 [19] = assay: Antitumor activity against human NCI-H1975 cells xenografted in ip dosed BALB/c mouse assessed as decrease in tumor volume; format: functional, organism-based; details: dose 5-20 mg/kg/day
HCC827 = assay: Induction of apoptosis in human HCC827 cells assessed as induction of caspase-3 cleavage pretreated with compound for 4 hrs followed by incubation with EGF for 10 mins by western blot analysis; format: functional, cell-based; details: dose 0.1-10 µM, time 250.0 min
NCI-H1975 [20] = assay: Inhibition of clonogenicity in human NCI-H1975 cells assessed as inhibition of colony formation incubated for 14 days by crystal violet staining based analysis; format: functional, cell-based; details: dose 0.1-10 µM, time 14.0 day
NCI-H1975 [21] = assay: Antitumor activity against N-(3-((6-Fluoro-2-((4-(4-methylpiperazin-1-yl)phenyl)amino)quinazolin-4-yl)amino)phenyl)acrylamide-resistant human NCI-H1975 cells xenografted in BALB/c mouse assessed as inhibition of tumor weight at 20 mg/kg/day, ip in presence of ACK1 inhibitor, dasatinib; format: functional, organism-based
[22] = tested on: Epidermal growth factor receptor (Homo sapiens), P00533 [UNDEFINED MUTATION]; assay: Inhibition of human EGFR exon del19 mutant assessed as residual activity at 1 uM by KINOMEscan analysis
[23] = molecular target: Epidermal growth factor receptor (Homo sapiens, UniProt P00533, L858R); assay: Inhibition of human partial length EGFR (R669 to V1011 residues) L858R mutant expressed in bacterial expression system by KINOMEscan analysis
Mus musculus [24] = organism: Mus musculus; details: BALB/c, dose 10.0 mg/kg/day, route po
Mus musculus [25] = organism: Mus musculus; details: BALB/c, dose 10.0 mg/kg/day, route po; remark: listed apart in the source

## C=CC(=O)Nc1cccc(Nc2nc(Nc3ccc(N4CCN(C)CC4)cc3)nc3ccc(F)cc23)c1
[1]
  AUC(0-t): 1040 ng·h/mL
A549 [2]
  Activity: Non-Toxic
[3]
  Activity: 1%
NCI-H1975 [4]
  Activity: Active
NCI-H1975 [5]
  IC50: 19 nM
NCI-H1975 [6]
  Activity: Active
Mus musculus [7]
  inhibition: Active
[8]
  inhibition: Active
Wild type EGFR
  activity at 1 µM: 96%
[9]
  IC50: 6.7 nM
[10]
  Activity: Non-Toxic
Mus musculus [11]
  inhibition: Active
Mus musculus [12]
  inhibition: Dose-Dependent Effect
[13]
  half-life: 72.9 h
[14]
  inhibition: inactive
NCI-H1975 [15]
  Activity: Dose-Dependent Effect
[16]
  Cmax: 650 ng/mL
A549 [17]
  Activity: Non-Toxic
[18]
  inhibition (INH): Not Active
NCI-H1975 [19]
  Activity: Dose-Dependent Effect
HCC827
  Activity: Dose-Dependent Effect
NCI-H1975 [20]
  inhibition: Dose-Dependent Effect
NCI-H1975 [21]
  Activity: Active
[22]
  Activity: 0%
[23]
  IC50: 2.1 nM

## C=CC(=O)Nc1cc(Nc2nccc(-c3cn(C)c4ccccc34)n2)c(OC)cc1N(C)CCN(C)C [OSIMERTINIB]
Mus musculus [24]
  inhibition: Active
Mus musculus [25]
  inhibition: Active
